Patent US8557833B2, “Aminopyrimidines useful as kinase inhibitors” (priority 2005, dated 2013)

Key:
Format in all cases: biochemical
[1] = target: N-terminally truncated Abl kinase; assay: Abl kinase activity inhibition assay, coupled enzyme; details: read-out: Abl (wild) Ki; 110 μM ATP, 30° C., 21 nM Abl kinase
Method: Final concentrations of the components of the coupled enzyme system were 2.5 mM phosphoenolpyruvate, 200 μM NADH, […] pyruvate kinase and 20 μg/ml lactate dehydrogenase.
An assay stock buffer solution was prepared containing all of the reagents listed above with the exception of ATP and the test compound of interest. […] Rates of reaction were obtained using a Molecular Devices Spectramax plate reader (Sunnyvale, Calif.) over 10 min at 30° C. The Ki values were determined from the residual rate data as a function of inhibitor concentration using nonlinear regression (Prism 3.0, Graphpad Software, San Diego, Calif.).

FGFR1 = FGFR1 (Homo sapiens, UniProt P11362); assay: FGFR1 inhibition assay; details: ATP at or close to Km
Chain of FGFR1 (P11362 22-822, species assumed): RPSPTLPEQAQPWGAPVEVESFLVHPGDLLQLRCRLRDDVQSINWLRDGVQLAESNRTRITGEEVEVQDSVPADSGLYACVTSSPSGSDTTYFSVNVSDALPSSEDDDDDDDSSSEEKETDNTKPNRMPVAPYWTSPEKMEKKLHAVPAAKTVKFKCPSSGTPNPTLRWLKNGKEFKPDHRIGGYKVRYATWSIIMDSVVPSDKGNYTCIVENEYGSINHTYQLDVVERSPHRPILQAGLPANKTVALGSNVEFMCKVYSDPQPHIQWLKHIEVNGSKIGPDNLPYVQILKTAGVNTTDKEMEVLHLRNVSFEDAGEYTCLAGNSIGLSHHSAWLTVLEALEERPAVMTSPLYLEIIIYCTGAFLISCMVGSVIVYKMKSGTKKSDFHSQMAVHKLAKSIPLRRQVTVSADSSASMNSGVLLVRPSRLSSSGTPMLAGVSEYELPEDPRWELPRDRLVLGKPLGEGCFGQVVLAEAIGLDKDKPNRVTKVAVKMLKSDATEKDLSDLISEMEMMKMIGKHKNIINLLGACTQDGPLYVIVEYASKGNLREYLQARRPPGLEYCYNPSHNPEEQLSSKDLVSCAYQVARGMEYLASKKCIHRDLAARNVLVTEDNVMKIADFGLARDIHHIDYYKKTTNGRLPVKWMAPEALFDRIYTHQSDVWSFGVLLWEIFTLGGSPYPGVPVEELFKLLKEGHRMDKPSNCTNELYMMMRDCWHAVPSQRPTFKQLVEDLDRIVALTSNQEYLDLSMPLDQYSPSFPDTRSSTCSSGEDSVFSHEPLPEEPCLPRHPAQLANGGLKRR
Source text: (§1) Compound I-1 was screened for its ability to inhibit Arg (Abl-2), FGFR1, MELK, MLK1, MuSK, Ret, and TrkA using screening methods known to one of ordinary skill in the art. All of the above enzymes were screened with ATP concentrations at or close to the Km for ATP.

MELK = MELK (Homo sapiens, UniProt Q14680); assay: MELK inhibition assay; details: ATP at or close to Km
Chain of MELK (Q14680 whole entry, species assumed): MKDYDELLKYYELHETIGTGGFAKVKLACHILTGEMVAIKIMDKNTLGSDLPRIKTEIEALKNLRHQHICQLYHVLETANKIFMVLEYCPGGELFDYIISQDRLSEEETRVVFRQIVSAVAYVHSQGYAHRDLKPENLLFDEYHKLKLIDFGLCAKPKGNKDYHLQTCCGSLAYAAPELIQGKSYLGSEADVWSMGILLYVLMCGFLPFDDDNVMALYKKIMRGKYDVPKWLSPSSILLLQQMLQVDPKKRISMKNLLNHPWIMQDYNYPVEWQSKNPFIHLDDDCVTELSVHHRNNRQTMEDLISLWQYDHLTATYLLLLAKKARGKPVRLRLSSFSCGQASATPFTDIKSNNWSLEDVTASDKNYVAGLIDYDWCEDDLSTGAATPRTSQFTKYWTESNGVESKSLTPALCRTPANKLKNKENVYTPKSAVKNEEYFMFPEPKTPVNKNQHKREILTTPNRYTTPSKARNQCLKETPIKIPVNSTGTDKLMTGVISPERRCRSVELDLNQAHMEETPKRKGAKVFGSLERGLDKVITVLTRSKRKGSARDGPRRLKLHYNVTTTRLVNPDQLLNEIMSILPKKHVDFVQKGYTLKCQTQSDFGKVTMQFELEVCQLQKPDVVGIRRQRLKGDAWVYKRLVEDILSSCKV
Source text: as §1

Ret = Ret (Homo sapiens, UniProt P07949); assay: Ret inhibition assay; details: ATP at or close to Km
Source text: as §1

Arg (Abl-2) = Arg (Abl-2) (Homo sapiens, UniProt P42684); assay: Arg (Abl-2) inhibition assay; details: ATP at or close to Km
Chain of Arg (Abl-2) (P42684 whole entry, species assumed): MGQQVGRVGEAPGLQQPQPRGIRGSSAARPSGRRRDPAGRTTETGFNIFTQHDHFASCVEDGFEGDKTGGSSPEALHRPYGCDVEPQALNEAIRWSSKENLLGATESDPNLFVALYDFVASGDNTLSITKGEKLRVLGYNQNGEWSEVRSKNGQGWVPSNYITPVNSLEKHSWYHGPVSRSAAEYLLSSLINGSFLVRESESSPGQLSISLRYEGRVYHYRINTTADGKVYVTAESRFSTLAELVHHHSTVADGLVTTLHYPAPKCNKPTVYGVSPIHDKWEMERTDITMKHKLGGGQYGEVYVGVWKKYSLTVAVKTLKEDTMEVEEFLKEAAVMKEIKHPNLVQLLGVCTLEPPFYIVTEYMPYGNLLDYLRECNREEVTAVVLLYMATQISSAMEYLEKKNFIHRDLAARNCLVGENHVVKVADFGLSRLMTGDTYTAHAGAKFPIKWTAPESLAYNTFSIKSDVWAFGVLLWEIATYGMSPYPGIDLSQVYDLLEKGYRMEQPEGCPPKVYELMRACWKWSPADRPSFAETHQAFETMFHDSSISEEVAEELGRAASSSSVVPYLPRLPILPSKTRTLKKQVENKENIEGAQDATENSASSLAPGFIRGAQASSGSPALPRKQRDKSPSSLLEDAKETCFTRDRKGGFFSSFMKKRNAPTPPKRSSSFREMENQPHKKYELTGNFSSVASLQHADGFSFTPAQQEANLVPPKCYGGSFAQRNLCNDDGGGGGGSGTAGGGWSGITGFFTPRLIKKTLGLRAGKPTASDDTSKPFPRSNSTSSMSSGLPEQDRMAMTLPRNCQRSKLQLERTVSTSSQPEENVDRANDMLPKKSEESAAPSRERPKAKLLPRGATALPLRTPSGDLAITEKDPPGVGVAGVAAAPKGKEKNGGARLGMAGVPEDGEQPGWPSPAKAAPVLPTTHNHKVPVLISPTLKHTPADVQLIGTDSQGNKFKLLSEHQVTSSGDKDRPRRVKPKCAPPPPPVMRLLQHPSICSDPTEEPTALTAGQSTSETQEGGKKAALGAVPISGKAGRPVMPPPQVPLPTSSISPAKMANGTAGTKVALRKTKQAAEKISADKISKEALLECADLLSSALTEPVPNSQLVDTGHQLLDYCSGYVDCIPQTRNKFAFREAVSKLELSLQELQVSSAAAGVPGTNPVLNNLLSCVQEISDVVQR
Source text: as §1

TrkA = TrkA (Homo sapiens, UniProt P04629); assay: TrkA inhibition assay; details: ATP at or close to Km
Chain of TrkA (P04629 33-796, species assumed): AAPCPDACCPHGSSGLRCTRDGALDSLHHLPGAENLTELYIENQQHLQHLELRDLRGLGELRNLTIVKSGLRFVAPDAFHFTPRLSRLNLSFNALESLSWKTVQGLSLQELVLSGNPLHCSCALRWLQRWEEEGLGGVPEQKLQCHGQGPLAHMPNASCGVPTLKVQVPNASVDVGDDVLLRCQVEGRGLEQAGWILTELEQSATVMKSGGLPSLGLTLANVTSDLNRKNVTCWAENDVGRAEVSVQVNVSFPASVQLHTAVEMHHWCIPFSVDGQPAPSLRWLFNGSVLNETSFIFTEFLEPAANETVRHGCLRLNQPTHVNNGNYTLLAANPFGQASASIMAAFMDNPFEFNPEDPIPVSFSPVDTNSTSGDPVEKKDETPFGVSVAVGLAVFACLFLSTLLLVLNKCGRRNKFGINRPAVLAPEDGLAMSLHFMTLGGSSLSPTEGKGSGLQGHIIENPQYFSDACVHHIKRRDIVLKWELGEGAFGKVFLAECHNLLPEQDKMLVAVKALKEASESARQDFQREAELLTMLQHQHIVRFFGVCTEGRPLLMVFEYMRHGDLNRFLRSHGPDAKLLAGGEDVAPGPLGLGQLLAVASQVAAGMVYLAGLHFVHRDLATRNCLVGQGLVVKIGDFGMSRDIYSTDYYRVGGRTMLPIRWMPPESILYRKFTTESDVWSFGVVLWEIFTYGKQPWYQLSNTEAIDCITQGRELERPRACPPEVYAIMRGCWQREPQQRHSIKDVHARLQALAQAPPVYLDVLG
Source text: as §1

MuSK = target: T1, MuSK (Homo sapiens, UniProt O15146); assay: MuSK inhibition assay; details: ATP at or close to Km
T1 sequence (O15146 24-869): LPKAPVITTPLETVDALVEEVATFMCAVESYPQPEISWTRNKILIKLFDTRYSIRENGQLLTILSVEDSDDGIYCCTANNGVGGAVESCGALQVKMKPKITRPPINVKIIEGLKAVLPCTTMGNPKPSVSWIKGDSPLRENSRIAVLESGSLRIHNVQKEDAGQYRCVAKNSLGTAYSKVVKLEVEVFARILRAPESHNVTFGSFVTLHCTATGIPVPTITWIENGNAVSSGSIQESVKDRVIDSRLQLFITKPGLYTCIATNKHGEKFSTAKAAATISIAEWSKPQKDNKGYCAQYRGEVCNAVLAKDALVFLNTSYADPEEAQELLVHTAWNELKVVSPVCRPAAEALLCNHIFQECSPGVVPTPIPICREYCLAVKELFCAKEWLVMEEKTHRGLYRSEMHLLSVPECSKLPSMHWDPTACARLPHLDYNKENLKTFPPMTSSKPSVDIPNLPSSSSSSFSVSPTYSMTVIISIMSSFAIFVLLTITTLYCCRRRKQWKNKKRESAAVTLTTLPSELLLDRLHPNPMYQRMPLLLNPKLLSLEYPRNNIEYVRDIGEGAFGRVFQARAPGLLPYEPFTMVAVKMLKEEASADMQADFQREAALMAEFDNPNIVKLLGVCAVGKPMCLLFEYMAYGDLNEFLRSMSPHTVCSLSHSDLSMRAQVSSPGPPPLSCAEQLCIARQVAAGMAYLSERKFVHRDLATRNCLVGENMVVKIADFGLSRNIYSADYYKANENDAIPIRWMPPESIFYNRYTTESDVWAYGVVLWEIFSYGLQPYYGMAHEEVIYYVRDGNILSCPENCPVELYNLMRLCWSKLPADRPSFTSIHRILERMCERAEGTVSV
Source text: as §1

MLK1 = MLK1 (Homo sapiens, UniProt P80192); assay: MLK1 inhibition assay; details: ATP at or close to Km
Source text: as §1

Chain of N-terminally truncated Abl kinase (P00519 28-1130): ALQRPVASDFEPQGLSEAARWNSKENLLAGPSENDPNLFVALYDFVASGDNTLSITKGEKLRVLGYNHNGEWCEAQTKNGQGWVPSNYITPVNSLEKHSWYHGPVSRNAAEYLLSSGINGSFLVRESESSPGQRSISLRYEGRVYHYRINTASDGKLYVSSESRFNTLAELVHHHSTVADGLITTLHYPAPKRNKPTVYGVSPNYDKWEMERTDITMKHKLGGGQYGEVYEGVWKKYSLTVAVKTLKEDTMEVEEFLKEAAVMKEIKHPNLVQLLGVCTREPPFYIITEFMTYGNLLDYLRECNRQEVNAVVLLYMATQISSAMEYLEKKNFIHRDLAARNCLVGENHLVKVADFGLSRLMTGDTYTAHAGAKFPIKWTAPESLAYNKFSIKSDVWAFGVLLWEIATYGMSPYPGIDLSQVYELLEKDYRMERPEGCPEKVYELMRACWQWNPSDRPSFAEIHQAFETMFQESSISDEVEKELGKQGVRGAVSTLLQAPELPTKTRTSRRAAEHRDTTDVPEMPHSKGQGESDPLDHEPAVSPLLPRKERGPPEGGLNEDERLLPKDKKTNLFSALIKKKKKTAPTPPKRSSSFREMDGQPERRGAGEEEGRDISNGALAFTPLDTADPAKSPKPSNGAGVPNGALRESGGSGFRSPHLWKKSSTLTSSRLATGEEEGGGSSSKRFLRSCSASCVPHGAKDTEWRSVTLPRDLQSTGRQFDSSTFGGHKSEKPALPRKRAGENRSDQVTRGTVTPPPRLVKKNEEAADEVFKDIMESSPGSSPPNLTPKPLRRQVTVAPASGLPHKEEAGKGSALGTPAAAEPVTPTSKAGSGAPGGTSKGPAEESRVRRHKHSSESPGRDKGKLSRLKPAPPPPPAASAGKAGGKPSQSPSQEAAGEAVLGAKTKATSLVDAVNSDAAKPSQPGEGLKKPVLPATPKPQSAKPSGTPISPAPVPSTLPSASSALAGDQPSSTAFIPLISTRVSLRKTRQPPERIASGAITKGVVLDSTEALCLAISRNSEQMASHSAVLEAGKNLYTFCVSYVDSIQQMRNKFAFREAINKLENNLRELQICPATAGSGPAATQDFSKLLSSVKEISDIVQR

Cc1cc(Nc2cc(N3CCC3)nc(Sc3ccc(NC(=O)c4ccccc4C(F)(F)F)cc3)n2)[nH]n1 [Compound I-14]
Ki [1]: 36 nM

Cc1cc(Nc2cc(N3CCC3)nc(Sc3ccc(NC(=O)c4cccc(Cl)c4F)cc3)n2)n[nH]1 [Compound I-15]
Ki [1]: 31 nM

Cc1cc(Nc2cc(N3CCC3)nc(Sc3ccc(NC(=O)c4c(F)cccc4F)cc3)n2)[nH]n1 [Compound I-2, N-{4-[4-Azetidin-1-yl-6-(5-methyl-2H-pyrazol-3-ylamino)-pyrimidin-2-ylsulfanyl]-phenyl}-2,6-Difluoro-benzamide]
Ki [1]: 7 nM

Cc1cc(Nc2cc(N3CCC3)nc(Sc3ccc(NC(=O)c4c(Cl)cccc4Cl)cc3)n2)n[nH]1 [Compound I-11]
Ki [1]: 21 nM

Cc1cc(Nc2cc(N3CCC3)nc(Sc3ccc(NC(=O)c4ccccc4C)cc3)n2)[nH]n1 [Compound I-5]
Ki [1]: 68 nM

Cc1cc(Nc2cc(N3CCC3)nc(Sc3ccc(NC(=O)c4ccccc4Cl)cc3)n2)[nH]n1 [Compound I-1, N-{4-[4-Azetidin-1-yl-6-(5-methyl-2H-pyrazol-3-ylamino)-pyrimidin-2-ylsulfanyl]-phenyl}-2-chloro-benzamide]
Ki (FGFR1): 5 nM | Ki (MELK): 17 nM | Ki (Ret): 8 nM | Ki [1]: 36 nM | Ki (Arg (Abl-2)): 12 nM | Ki (TrkA): < 6 nM | Ki (MuSK): 70 nM | Ki (MLK1): < 18 nM
